This passage reports IC50 results from US20250154146A1, “PROTEIN DEGRADERS DEVELOPED ON BASIS OF BCL-2 FAMILY PROTEIN LIGAND COMPOUNDS AND USE THEREOF” (ShanghaiTech University, priority 2022, published 2025).

Holding throughout (type): cell-based
One experiment relates to Molt-4 cells. Kind of experiment: Thiazolyl blue cell proliferation assay in Molt-4 cells. Conditions: Homo sapiens, Molt-4 acute lymphocytic leukemia cells, 72 hours, read-out: IC50 (nM) for inhibiting the proliferation of Molt-4 cells. The source says:
(§1) The cell lines RS4;11 (human acute lymphocytic leukemia cells), Molt-4 cells (human acute lymphocytic leukemia cells), MV4;11 (human myeloid monocytic leukemia cells), and Light II cells were commercially available or purchased from ATCC (American Type Culture Collection) and routinely cultured according to instructions.
3) Study on the proliferation inhibition effects induced by the compounds of the present disclosure designed based on ABT199/263 against BCL-XL-dependent Molt-4 cells:
(§2) The specific steps were as follows: Molt-4 cells were seeded at a density of 2×10^4 cells/well in 180 μL of serum-containing RPMI 1640 culture medium. DT2216 and the compounds of the present disclosure were added to the cell suspension at corresponding concentration gradients. DT2216 and DMSO were used as positive and vehicle control, respectively. The positive control and negative control were treated with the same treatment method as the compounds of the present disclosure. After treating the cells with the compounds of the present disclosure for 72 hours, thiazole blue solution (5 mg/mL) was added at 20 μL/well to the cell suspension, followed by incubation for 3 hours at 37° C. in an incubator with 5% CO2. Then, triple solution (0.1 g/mL SDS, 5% isopropyl alcohol, 10 mM hydrochloric acid) was added, followed by incubation for 4-6 hours at 37° C. in an incubator with 5% CO2. After confirming that all the crystal violets were dissolved under inverted biological microscopy, the absorbance was measured at 490 nm using an Epoch microplate reader (Biotek Corporation). The growth inhibition of the compounds of the present disclosure on the cells was plotted by GraphPad Prism 8 software, and the IC50 values of the compounds of the present disclosure were calculated therefrom. The experiment had 3 replicates per group and was repeated at least three times.

In experiment [1] the test system is Hedgehog (Hh) signaling pathway. Kind of experiment: Dual-luciferase reporter assay of Hedgehog activity in Light II cells. Conditions: SAG stimulation, 36 h, dual-luciferase assay reporter kit, read-out: IC50 (nM) in Light II cells (inhibiting Hedgehog activity). How it is done:
Determination of the IC50 Values of Compounds Inhibiting Hedgehog Activity—Dual-Luciferase Reporter Assay:
Light II cells were NIH3T3 cell lines that stably express the Gli-luciferase and TK-renilla reporters. They were cultured with DMEM medium containing 10% (v/v) fetal bovine serum (FBS), 0.4 mg/ml G418, 0.15 mg/ml bleomycin (Zeocin), and penicillin/streptomycin at 37° C. in an incubator with 5% CO2. Light II cells in the logarithmic growth phase were seeded at a density of 2.5×10^4 cells/well in a 96-well plate. After 24h incubation, the cells were subjected to treatment with SAG with or without different concentrations of the compounds of the present disclosure for 36 h. After that, the Hedgehog activity was measured using the dual fluorescence reporter kit according to its instructions. The experiment had 3 replicates per group and was repeated at least three times.

The next experiment relates to MV4;11 cells. Kind of experiment: Thiazolyl blue cell proliferation assay in MV4;11 cells. Conditions: Homo sapiens, MV4;11 myeloid monocytic leukemia cells, 48 hours, read-out: IC50 (nM) for inhibiting the proliferation of MV4;11 cells.
Text: as §1
2) Study on the proliferation inhibition effects induced by the compounds of the present disclosure designed based on ABT199/263 against BCL-XL-dependent MV4;11 cells:
as §2, with “MV4;11” for “Molt-4”, “90” for “180”, “IMDM” for “RPMI 1640”, “48” for “72”, “10 µL/well” for “20 μL/well”

In a further experiment the test system is RS4;11 cells. Kind of experiment: Thiazolyl blue cell proliferation assay in RS4;11 cells. Conditions: Homo sapiens, RS4;11 acute lymphoblastic leukemia cells, 48 hours, read-out: IC50 (nM) for inhibiting the proliferation of RS4;11 cells.
Text: as §1
1) Study on the proliferation inhibition effects induced by the compounds of the present disclosure designed based on ABT199/263 against BCL-XL-dependent RS4;11 cells:
as §2, with “RS4;11” for “Molt-4”, “3×10^4” for “2×10^4”, “90” for “180”, “RPMI-1640” for “RPMI 1640”, “48” for “72”, “10” for “20”
We conducted dose-dependent experiments on the designed and synthesized compounds of the present disclosure in RS4;11 cells, which are highly sensitive to BCL-XL inhibitors. The cells were treated with 7 different concentrations (starting at the highest concentration of 1000 nM or 100 nM; 10-fold serial dilutions) of the compounds for 48 hours, and then tested using the thiazolyl blue cell proliferation assay.

The structures appear in SMILES notation.

Turning to `C[C@H]1CN([C@H]2CC[C@@H](CNc3ccc(S(=O)(=O)NC(=O)c4ccc(N5CCN(CC6=C(c7ccc(Cl)cc7)CC(C)(C)CC6)CC5)cc4Oc4cnc5[nH]ccc5c4)cc3[N+](=O)[O-])CC2)CCN1Cc1cc(Br)c2c(c1)C(=O)N(C1CCC(=O)NC1=O)C2` (stereo partly drawn) [BCL-03169, 2-((1H-pyrrolo[2,3-b]pyridin-5-yl)oxy)-N-((4-((((cis)-4-((3S)-4-((7-bromo-2-(2,6-dioxopiperidin-3-yl)-3-oxoisoindolin-5-yl)methyl)-3-methylpiperazin-1-yl)cyclohexyl)methyl)amino)-3-nitrophenyl)sulfonyl)-4-(4-((4′-chloro-5,5-dimethyl-3,4,5,6-tetrahydro-[1,1′-biphenyl]-2-yl)methyl)piperazin-1-yl)benzamide], the IC50 in the experiment on Molt-4 cells was less than 10 nM; in experiment [1], less than 10 nM; in the experiment with MV4;11 cells it was less than 20 nM; with RS4;11 cells, less than 20 nM.
With `CC1(C)CCC(CN2CCN(c3ccc(C(=O)NS(=O)(=O)c4ccc(NC[C@H]5CC[C@H](N6CCN(Cc7ccc8c(c7)C(=O)N(C7CCC(=O)NC7=O)C8=O)CC6)CC5)c(S(=O)(=O)C(F)(F)F)c4)c(Oc4cnc5[nH]ccc5c4)c3)CC2)=C(c2ccc(Cl)cc2)C1` (stereo partly drawn) [BCL-03185, 2-((1H-pyrrolo[2,3-b]pyridin-5-yl)oxy)-4-(4-((4′-chloro-5,5-dimethyl-3,4,5,6-tetrahydro-[1,1′-biphenyl]-2-yl)methyl)piperazin-1-yl)-N-((4-((((trans)-4-(4-((2-(2,6-dioxopiperidin-3-yl)-1,3-dioxoisoindolin-5-yl)methyl)piperazin-1-yl)cyclohexyl)methyl)amino)-3-((trifluoromethyl)sulfonyl)phenyl)sulfonyl)benzamide], the IC50 with Molt-4 cells is less than 10 nM; in the experiment on MV4;11 cells, less than 20 nM; with RS4;11 cells, less than 20 nM.
Take `CC1(C)CCC(c2ccc(Cl)cc2)=C(CN2CCN(c3ccc(C(=O)NS(=O)(=O)c4ccc(N[C@H](CCN5CCN(Cc6ccc7c(c6)CN(C6CCC(=O)NC6=O)C7=O)CC5)CSc5ccccc5)c(S(=O)(=O)C(F)(F)F)c4)cc3)CC2)C1` (stereo partly drawn) [BCL-03177, 4-(4-((4′-chloro-4,4-dimethyl-3,4,5,6-tetrahydro-[1,1′-biphenyl]-2-yl)methyl)piperazin-1-yl)-N-((4-(((2R)-4-(4-((2-(2,6-dioxopiperidin-3-yl)-1-oxoisoindolin-5-yl)methyl)piperazin-1-yl)-1-(phenylthio)butan-2-yl)amino)-3-((trifluoromethyl)sulfonyl)phenyl)sulfonyl)benzamide]: the IC50 in the experiment with Molt-4 cells is less than 10 nM; in experiment [1] it was less than 10 nM; in the experiment with MV4;11 cells, less than 20 nM; in the experiment on RS4;11 cells, less than 20 nM.
In the case of `C[C@@H]1CN([C@H]2CC[C@@H](CNc3ccc(S(=O)(=O)NC(=O)c4ccc(N5CCN(CC6=C(c7ccc(Cl)cc7)CC(C)(C)CC6)CC5)cc4Oc4cnc5[nH]ccc5c4)cc3[N+](=O)[O-])CC2)CCN1Cc1ccc2c(c1)CN(C1CCC(=O)NC1=O)C2=O` (stereo partly drawn) [BCL-03167, 2-((1H-pyrrolo[2,3-b]pyridin-5-yl)oxy)-4-(4-((4′-chloro-5,5-dimethyl-3,4,5,6-tetrahydro-[1,1′-biphenyl]-2-yl)methyl)piperazin-1-yl)-N-((4-((((cis)-4-((3R)-4-((2-(2,6-dioxopiperidin-3-yl)-1-oxoisoindolin-5-yl)methyl)-3-methylpiperazin-1-yl)cyclohexyl)methyl)amino)-3-nitrophenyl)sulfonyl)benzamide], the IC50 was less than 10 nM with Molt-4 cells, less than 10 nM in experiment [1], less than 20 nM in the experiment on MV4;11 cells and less than 20 nM with RS4;11 cells.
In the case of `Cc1ncsc1-c1ccc([C@H](C)NC(=O)[C@@H]2C[C@@H](O)CN2C(=O)[C@@H](NC(=O)CCCCCC(=O)N2CCN(CC[C@H](CSc3ccccc3)Nc3ccc(S(=O)(=O)NC(=O)c4ccc(N5CCN(CC6=C(c7ccc(Cl)cc7)CCC(C)(C)C6)CC5)cc4)cc3S(=O)(=O)C(F)(F)F)CC2)C(C)(C)C)cc1` [DT2216, reference compound], the figures for the IC50 in the experiment on Molt-4 cells, in the experiment on MV4;11 cells and with RS4;11 cells were 17.3 ± 9.57 nM, 165 ± 70.7 nM and 81 ± 24.9 nM, respectively.
In the case of `CC1(C)CCC(CN2CCN(c3ccc(C(=O)NS(=O)(=O)c4ccc(NC[C@H]5CC[C@H](N6CCN(Cc7ccc8c(c7)C(=O)N(C7CCC(=O)NC7=O)C8=O)CC6)CC5)c([N+](=O)[O-])c4)c(Oc4cnc5[nH]ccc5c4)c3)CC2)=C(c2ccc(Cl)cc2)C1` (relative stereo) [BCL-03188, 2-((1H-pyrrolo[2,3-b]pyridin-5-yl)oxy)-4-(4-((4′-chloro-5,5-dimethyl-3,4,5,6-tetrahydro-[1,1′-biphenyl]-2-yl)methyl)piperazin-1-yl)-N-((4-((((trans)-4-(4-((2-(2,6-dioxopiperidin-3-yl)-1,3-dioxoisoindolin-5-yl)methyl)piperazin-1-yl)cyclohexyl)methyl)amino)-3-nitrophenyl)sulfonyl)benzamide], the IC50 was less than 10 nM in the experiment on Molt-4 cells, less than 20 nM with MV4;11 cells and less than 20 nM with RS4;11 cells.
In the case of `CC1(C)CCC(CN2CCN(c3ccc(C(=O)NS(=O)(=O)c4ccc(NC[C@H]5CC[C@H](N6CCN(Cc7cc(Br)c8c(c7)C(=O)N(C7CCC(=O)NC7=O)C8)CC6)CC5)c(S(=O)(=O)C(F)(F)F)c4)c(Oc4cnc5[nH]ccc5c4)c3)CC2)=C(c2ccc(Cl)cc2)C1` (stereo partly drawn) [BCL-03182, 2-((1H-pyrrolo[2,3-b]pyridin-5-yl)oxy)-N-((4-((((trans)-4-(4-((7-bromo-2-(2,6-dioxopiperidin-3-yl)-3-oxoisoindolin-5-yl)methyl)piperazin-1-yl)cyclohexyl)methyl)amino)-3-((trifluoromethyl)sulfonyl)phenyl)sulfonyl)-4-(4-((4′-chloro-5,5-dimethyl-3,4,5,6-tetrahydro-[1,1′-biphenyl]-2-yl)methyl)piperazin-1-yl)benzamide], the figures for the IC50 in the experiment with Molt-4 cells, with MV4;11 cells and in the experiment with RS4;11 cells were less than 10 nM, less than 20 nM and less than 20 nM, respectively.
